“And” between values parts separate entries of the source, which are not always exact repeats. Equal entries are not always repeated.
Key:
[1] = tested on: THP-1 cells; assay: Human monocytic cell line-based potency assay: sIL-1Ra expression (ELISA) in THP-1 cells stimulated with PMA and LPS and exposed to glatiramer acetate
Experimental: Human monocytic cells are brought into a suitable medium, e.g. RPMI 1640 medium, and are stimulated with an effective amount of PMA and LPS, contacted with GA (0-250 μg/ml) and the effect on the expression of a monocyte anti-inflammatory cytokine, such as sIL-1Ra, is measured. […] Dose-response curves are generated by GA activation of monocytic cells and EC50 values are calculated using a non-linear four-parameter logistic model on semi-log transformed data, as described in the draft USP chapter <1034> on analysis of biological assays.
• THP-1 cells are harvested and centrifugated at 200g for 5 minutes; • Resuspend the pellet in 10 ml fresh pre-warmed RPMI-1640+10% FBS+2mM L-Glutamine; • Take a sample for cell counting; • After cell count adjust the cell density to 5 x 10^5 cells/ml and add 100 μl of the THP-1 cell suspension to the wells of a 96-wellsplate (Corning Costar #3596); • Fill the boundary wells of the plate with CGM and place the plate temporally into a humidified incubator at 37 ± 1 °C and 5.0 ± 1% CO2.
• In the dilution plate prepare the glatiramer acetate dilution series. The stock concentration is 20 mg/ml, which needs to be diluted in a 96-wellsplate to a working stock concentration of 1.2 mg/ml for the highest dilution on the dilution plate; • Pipette 75 μl RPMI-1640+10% FBS in column 2-8 (row B-G) of the dilution plate and pipette 235 μl RPMI-1640+10% FBS in column 9 (row B-G). Note: Other wells of the dilution 96-wellsplate remain unused; • Add 15 μl of reference glatiramer acetate and the test sample of glatiramer acetate (20 mg/ml) into column 9 (row B-G) of the dilution plate, giving a new concentration of 1.2 mg/ml; • Serially dilute 150 μl down, from column 9 to 2. Mix at each step by pipetting up and down 5 times; • Add 50 μl of the LPS/PMA working solution to the cell plate, with exception of the boundary wells.The final concentrations are 25 ng/ml LPS and 5 ng/ml PMA; • Add 50 μl of the glatiramer acetate dilutions to the plate containing the cells and the LPS and PMA working solution. The final dose-range of glatiramer acetate is between 12.5 and 250 μg/ml; • Incubate cells for 72 hours at 37°C in an incubator with 5% CO2, 93% humidity.
• After 72 hours of incubation centrifuge the 96-well plate at 200g for 5 minutes. • Transfer 150 μl of the cell-free supernatant/well to a storage plate. • Supernatant of the samples will be used for analysis by IL-1Ra/Il-1F3 ELISA. • sIL-1Ra is determined using the sIL-1Ra ELISA kit from Quantikine, R&D, Minneapolis, MN (Cat # DRAOOB) following the manufacturer's instructions. The remainder of the supernatant is stored in a closed storage plate at -80°C.
Data on sIL-1Ra concentration are analyzed for relative potency as described in draft USP chapter <1034> section 3.4 on nonlinear models for quantitative responses. The software package GraphPad Prism (5.x) is used for fitting to a nonlinear model to the data: • sIL-1Ra data (in pg/ml) are plotted against the log transformed glatiramer acetate concentration (in log μg/ml); • A four-parameter logistic model is constructed to fit the dose response curves of the Reference (Ref) and the test batch (TA). […]

[2] = tested on: THP-1 cells; assay: as above; conditions: THP-1 cells treated with PMA alone or LPS alone instead of the combination

EC50 ([1]; sIL-1Ra response, glatiramer acetate concentration in μg/ml, 5 ng/ml PMA and 25 ng/ml LPS, 72 hours, four independent curves A-D of the same material, in µg/mL): 42.05 and 54.02 and 49.84 and 45.28
Substance: glatiramer acetate
Bottom ([1]; bottom asymptote of constrained four-parameter logistic fit of sIL-1Ra response (sIL-1Ra data in pg/ml), 5 ng/ml PMA and 25 ng/ml LPS, 72 hours, four independent curves A-D of the same material, common value): -4031 | Relative potency (%) ([1]; relative to curve A, arbitrarily set at 100%, all curves are 100% samples of the same material, curves A-D): 100.0% and 128.5% and 118.5% and 107.7% | Slope ([1]; slope of constrained four-parameter logistic fit of sIL-1Ra response, 5 ng/ml PMA and 25 ng/ml LPS, curves A-D, common value): 3.306 | Top ([1]; top asymptote of constrained four-parameter logistic fit of sIL-1Ra response (sIL-1Ra data in pg/ml), 5 ng/ml PMA and 25 ng/ml LPS, 72 hours, curves A-D, common value): 53602 | GA-induced cytokine expression [2]: neither PMA nor LPS treatment of THP-1 cells alone results in GA-induced cytokine expression

Reference: EP2642290A1, “Glatiramer acetate human monocytic cell line-based potency assay” (Synthon BV, priority 2012, dated 2013)
